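Tested at 5 concentrations; 48 h exposure; 96-well plates; endpoints linearly interpolated, else capped at highest concentration. GI50 is the concentration that inhibits growth by half.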 The source made the active and inactive calls. Rule as the data show it: active = GI50 up to about 1.1 µM and inactive = higher.
Columns and labels:
Test in all cases: NCI-60 cell line screen, 48 h
ACHN = test system: ACHN
BT-549 = test system: BT-549
DU-145 = test system: DU-145
HCC 2998 = test system: HCC 2998
HCT-15 = test system: HCT-15
KM12 = test system: KM12
M14 = test system: M14
NCI-H460 = test system: NCI-H460
SF-268 = test system: SF-268
SF-295 = test system: SF-295
SK-MEL-2 = test system: SK-MEL-2
SK-MEL-5 = test system: SK-MEL-5
SK-OV-3 = test system: SK-OV-3
SN12C = test system: SN12C
U-251 = test system: U-251
UACC-257 = test system: UACC-257
UACC-62 = test system: UACC-62
Malme-3M = test system: Malme-3M
NCI-H522 = test system: NCI-H522

Row | SMILES | GI50 (ACHN) | GI50 (BT-549) | GI50 (DU-145) | GI50 (HCC 2998) | GI50 (HCT-15) [µM] | GI50 (KM12) | GI50 (M14) | GI50 (NCI-H460) | GI50 (SF-268) | GI50 (SF-295) | GI50 (SK-MEL-2) | GI50 (SK-MEL-5) | GI50 (SK-OV-3) | GI50 (SN12C) | GI50 (U-251) | GI50 (UACC-257) | GI50 (UACC-62) | GI50 (Malme-3M) | GI50 (NCI-H522)
1 | Cc1c(C(=O)c2ccccc2)[n+]([O-])c2cc(Cl)c(Cl)cc2[n+]1[O-] | 14.3 µM (inactive) | 16.9 µM (inactive) | 16.1 µM (inactive) | 1.56 µM (inactive) | 1.99 | 8.65 µM (inactive) | 2.87 µM (inactive) | 15.9 µM (inactive) | 15.3 µM (inactive) | 14.9 µM (inactive) | 5.92 µM (inactive) | 15.2 µM (inactive) | 19.6 µM (inactive) | 15.2 µM (inactive) | 15.6 µM (inactive) | 3.17 µM (inactive) | 11.4 µM (inactive) |  | 
2 | Cc1cc(Cc2c(F)c(F)c(C(c3cc(C)no3)c3c(F)c(F)c(F)c(F)c3F)c(F)c2F)on1 (stereo not drawn) | > 100 µM (inactive) | > 100 µM (inactive) | > 100 µM (inactive) | > 27.9 µM (inactive) | 14.2 | 19.5 µM (inactive) | 24 µM (inactive) | 6.41 µM (inactive) | 78.3 µM (inactive) | 5.41 µM (inactive) | 9.71 µM (inactive) | 7.16 µM (inactive) |  | > 50.7 µM (inactive) | 18.4 µM (inactive) | 5.32 µM (inactive) | > 27 µM (inactive) | > 100 µM (inactive) | 23.9 µM (inactive)
3 | COc1cccc(/C=C/C2=NN(c3cccc(S(=O)(=O)O)c3)C3(C2)SCC(=O)N3c2nc3ccccc3s2)c1 (stereo not drawn) | 51.8 µM (inactive) | 53 µM (inactive) | 30.6 µM (inactive) | 95.1 µM (inactive) | 53.5 | 32 µM (inactive) | 80.9 µM (inactive) | 35.7 µM (inactive) | 33.3 µM (inactive) |  | 44.8 µM (inactive) | 36 µM (inactive) |  | 33.3 µM (inactive) | 30.5 µM (inactive) | 85.7 µM (inactive) | 36 µM (inactive) | 47 µM (inactive) | 14.7 µM (inactive)
4 | COc1cc(/C=C2\N=C(c3ccccc3)N(C3Nc4cc5c(cc4S3)NC(N3C(=O)/C(=C/c4cc(OC)c(OC)c(OC)c4)N=C3c3ccccc3)S5)C2=O)cc(OC)c1OC (stereo not drawn) | > 100 µM (inactive) | 97.1 µM (inactive) | 94.8 µM (inactive) | > 100 µM (inactive) | 57.5 | 89.3 µM (inactive) | > 100 µM (inactive) | 13.7 µM (inactive) | > 100 µM (inactive) | 83.6 µM (inactive) | > 100 µM (inactive) | 64.9 µM (inactive) |  |  | 45.2 µM (inactive) | > 100 µM (inactive) |  |  | 60.3 µM (inactive)
5 | N=C(N)N/N=C/c1c(-c2cc([N+](=O)[O-])c(Cl)cc2Cl)nc2n1CCS2 | 22.4 µM (inactive) | 3.18 µM (inactive) | 27.6 µM (inactive) | 2.55 µM (inactive) | 47 | 4.83 µM (inactive) | 6.04 µM (inactive) | 27.6 µM (inactive) | 9.93 µM (inactive) | 25.6 µM (inactive) | 3.13 µM (inactive) | 29.9 µM (inactive) |  | 23.4 µM (inactive) | 3.21 µM (inactive) | 20.7 µM (inactive) | 25.5 µM (inactive) | 24.5 µM (inactive) | 17 µM (inactive)
6 | CC[C@@H](/C=C\CCC(=O)C[C@H](O)CCC=C(C)C)O[Si](C(C)C)(C(C)C)C(C)C | > 100 µM (inactive) | > 100 µM (inactive) | > 100 µM (inactive) | > 100 µM (inactive) | > 100 | > 100 µM (inactive) | > 100 µM (inactive) | > 100 µM (inactive) | > 100 µM (inactive) | > 100 µM (inactive) | 42.9 µM (inactive) | 69 µM (inactive) | > 100 µM (inactive) | > 100 µM (inactive) | > 100 µM (inactive) | 85.1 µM (inactive) | > 100 µM (inactive) |  | 48.6 µM (inactive)
7 | Cc1cc(=O)oc2cc(OS(C)(=O)=O)ccc12 | > 100 µM (inactive) | > 100 µM (inactive) | > 100 µM (inactive) | > 100 µM (inactive) | > 100 |  | > 100 µM (inactive) | > 100 µM (inactive) | > 100 µM (inactive) | > 100 µM (inactive) | > 100 µM (inactive) | > 100 µM (inactive) |  | > 100 µM (inactive) | > 100 µM (inactive) | > 100 µM (inactive) | > 100 µM (inactive) | > 100 µM (inactive) | > 100 µM (inactive)
8 | c1ccc(COC2NCCN2Cc2ccccc2)cc1 (stereo not drawn) | > 100 µM (inactive) | > 100 µM (inactive) | > 100 µM (inactive) |  | > 100 | > 100 µM (inactive) | > 100 µM (inactive) | > 100 µM (inactive) | > 100 µM (inactive) | > 100 µM (inactive) | > 100 µM (inactive) | > 100 µM (inactive) | > 100 µM (inactive) | > 100 µM (inactive) | > 100 µM (inactive) | 61 µM (inactive) | 63.2 µM (inactive) | > 100 µM (inactive) | > 100 µM (inactive)
9 | O=C1CCN2C(=N1)Sc1ccccc12 | > 100 µM (inactive) | > 100 µM (inactive) | > 100 µM (inactive) |  | > 100 | > 100 µM (inactive) | > 100 µM (inactive) | > 100 µM (inactive) | > 100 µM (inactive) | > 100 µM (inactive) | > 100 µM (inactive) | > 100 µM (inactive) | > 100 µM (inactive) | > 100 µM (inactive) | > 100 µM (inactive) | > 100 µM (inactive) | > 100 µM (inactive) | > 100 µM (inactive) | > 100 µM (inactive)
10 | CC(=N\N=C\c1ccccn1)/C(C)=N/N=C/c1ccccn1 | > 100 µM (inactive) | > 100 µM (inactive) | > 100 µM (inactive) | > 100 µM (inactive) | 60.8 | > 100 µM (inactive) | > 100 µM (inactive) | > 100 µM (inactive) | > 100 µM (inactive) | > 100 µM (inactive) | > 100 µM (inactive) | 98.4 µM (inactive) | > 100 µM (inactive) | > 100 µM (inactive) | > 100 µM (inactive) | > 100 µM (inactive) |  | > 100 µM (inactive) | > 100 µM (inactive)
11 | Cc1cn(C2CC(OC(=O)c3ccc(Cl)cc3)C(COC(=O)c3ccc(Cl)cc3)O2)c(=O)[nH]c1=O (stereo not drawn) | > 100 µM (inactive) | > 100 µM (inactive) | > 100 µM (inactive) |  | > 100 | > 100 µM (inactive) | > 100 µM (inactive) | > 100 µM (inactive) | > 100 µM (inactive) | > 100 µM (inactive) | > 100 µM (inactive) | > 100 µM (inactive) | > 100 µM (inactive) | > 100 µM (inactive) | > 100 µM (inactive) | > 100 µM (inactive) | > 100 µM (inactive) | > 100 µM (inactive) | > 100 µM (inactive)
12 | CN1C/C(=C\c2cccs2)C2=NN(c3ccccc3)C(c3cccs3)C2C1 (stereo not drawn) | > 34 µM (inactive) | 17.9 µM (inactive) | 5.33 µM (inactive) | 6.21 µM (inactive) | 3.78 | 4.35 µM (inactive) | 3.91 µM (inactive) | 3.52 µM (inactive) |  | 4.95 µM (inactive) | 25.5 µM (inactive) | 11.9 µM (inactive) | > 73.3 µM (inactive) | 4.39 µM (inactive) | 12 µM (inactive) | 5.92 µM (inactive) | > 100 µM (inactive) |  | 3.43 µM (inactive)
13 | NC(=O)CC1OC(=O)Cc2cc3c(c(O)c21)C(=O)c1c(O)cccc1C3=O (stereo not drawn) | 41.5 µM (inactive) | > 100 µM (inactive) | > 100 µM (inactive) | > 100 µM (inactive) | 71.4 |  | > 100 µM (inactive) | 89.5 µM (inactive) |  | > 100 µM (inactive) | > 100 µM (inactive) | 67.5 µM (inactive) | > 100 µM (inactive) | > 100 µM (inactive) | > 100 µM (inactive) | > 100 µM (inactive) | > 100 µM (inactive) | > 100 µM (inactive) | > 100 µM (inactive)
14 | O=C1c2ccccc2C2(c3ccc(Cl)cc3)N[C@@H]3CCCC[C@@H]3N12 (stereo partly drawn) | > 100 µM (inactive) | > 100 µM (inactive) | > 100 µM (inactive) | > 100 µM (inactive) | > 100 | > 100 µM (inactive) | > 100 µM (inactive) | > 100 µM (inactive) | > 100 µM (inactive) | > 100 µM (inactive) | > 100 µM (inactive) | > 100 µM (inactive) | > 100 µM (inactive) | > 100 µM (inactive) | > 100 µM (inactive) | > 100 µM (inactive) | > 100 µM (inactive) |  | 
15 | CC(NC(=O)C1(N)CCCC1)C(=O)O (stereo not drawn) | > 100 µM (inactive) | > 100 µM (inactive) | > 100 µM (inactive) | > 100 µM (inactive) | > 100 | > 100 µM (inactive) | > 100 µM (inactive) |  | > 100 µM (inactive) | > 100 µM (inactive) | > 100 µM (inactive) | > 100 µM (inactive) | > 100 µM (inactive) | > 100 µM (inactive) | > 100 µM (inactive) | > 100 µM (inactive) | > 100 µM (inactive) | > 100 µM (inactive) | > 100 µM (inactive)
16 | Cc1c(N/C=C(\C#N)C(=O)c2ccc(Cl)cc2)c(=O)n(-c2ccccc2)n1C |  | 46.6 µM (inactive) | > 100 µM (inactive) | > 100 µM (inactive) | > 100 | > 100 µM (inactive) | > 100 µM (inactive) | > 100 µM (inactive) |  | > 100 µM (inactive) | 62.1 µM (inactive) | 66.7 µM (inactive) | > 100 µM (inactive) | > 100 µM (inactive) | > 100 µM (inactive) | > 100 µM (inactive) | 59.3 µM (inactive) | > 100 µM (inactive) | > 100 µM (inactive)
